Measurements: patent US5916887A, “4-substituted-3-(2-amino-2-cycloalkyl methyl)-acetamido azetidin-2-one derivatives as cysteine proteinase regulators” (National Research Council of Canada, priority 1997, dated 1999)

What was measured:
cathepsin L [1] = molecular target: T1, cathepsin L (Rattus norvegicus, UniProt P07154); experiment: In vivo inhibition test for cathepsin L, rat liver ML fraction; set-up: The precipitate (crude mitochondrial-lysosomal fraction; from tissue; host or cells: liver, crude mitochondrial-lysosomal (ML) fraction of dosed rodents; details: 6 hours, mean for 3 animals
Description: (§1) In vivo inhibition test for cathepsin B and L
(§2) The in vivo inhibition of cathepsin B and L are tested according to the known method (T. Towatari et al, FEBS, 1991, 280, 311-315). Inhibitor is injected intraperitoneally into rodents as a solution in saline containing DMSO or DMSO:PEG400 (1:1) at the doses indicated in Table 2. The rodents are killed after 6 hours, and the liver is perfused with ice-cold saline, and chilled on ice. Sample of 4 g of liver are homogenized in 7 volumes of 0.25 M sucrose. The homogenate is centrifuged at 800 g for 15 min. and the supernatant is centrifuged at 12,000 g for 30 min. The precipitate (crude mitochondrial-lysosomal fraction; ML fraction) is suspended in 2 ml of 0.05 M acetate buffer, pH 5.0, and then freeze-thawed for measurements of cathepsin B and L.
Target sequence in this assay (P07154 114-288 limits assumed): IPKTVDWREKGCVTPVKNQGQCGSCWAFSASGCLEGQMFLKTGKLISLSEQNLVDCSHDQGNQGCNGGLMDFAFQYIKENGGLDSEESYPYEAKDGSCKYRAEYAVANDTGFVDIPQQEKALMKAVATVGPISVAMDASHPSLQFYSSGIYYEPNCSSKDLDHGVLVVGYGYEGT
Target sequence in this assay (P07154 291-334 limits assumed): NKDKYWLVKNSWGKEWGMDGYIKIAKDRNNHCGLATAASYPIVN

cathepsin B [2] = molecular target: T2, cathepsin B (Rattus norvegicus, UniProt P00787); experiment: In vivo inhibition test for cathepsin B, rat liver ML fraction; set-up: The precipitate (crude mitochondrial-lysosomal fraction; from tissue; host or cells: liver, crude mitochondrial-lysosomal (ML) fraction of dosed rodents; details: 6 hours, mean for 3 animals
Description: as §1, §2
Target sequence in this assay (P00787 80-126 limits assumed): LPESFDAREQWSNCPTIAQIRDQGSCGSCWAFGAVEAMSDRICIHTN
Target sequence in this assay (P00787 129-333 limits assumed): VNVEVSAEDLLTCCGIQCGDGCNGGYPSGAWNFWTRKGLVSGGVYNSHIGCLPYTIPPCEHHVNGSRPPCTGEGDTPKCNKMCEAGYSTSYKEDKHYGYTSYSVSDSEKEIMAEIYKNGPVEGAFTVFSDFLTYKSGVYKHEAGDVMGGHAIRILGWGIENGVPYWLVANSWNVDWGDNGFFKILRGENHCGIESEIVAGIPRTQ

cathepsin L [3] = molecular target: T1, cathepsin L; experiment: In vitro assay procedure for cathepsin L (recombinant rat cathepsin L, N-CBZ-Phe-Arg-AMC substrate); format: biochemical; details: pH 5.0, 10 min incubation at room temperature
Description: In vitro assay procedure for cathepsin L
To 170 μl of enzyme-buffer mixture (enzyme: recombinant rat cathepsin L, diluted to give approximate 15 Fluorescence units/min, buffer: 58.8 mM sodium citrate, 1.18 mM EDTA, 235 mM sodium chloride, 5 mM DTT, pH 5.0) 10 μL of inhibitor (dissolved in DMSO) is added. After 10 min of incubation at room temperature, 20 μl of 1 mM substrate (N-CBZ-Phe-Arg-AMC, dissolved in DMSO) is added to initiate reaction. Reading is followed up for 10 min on a Fluoroskan fluorescence reader (excitation at 380 nm emission at 460 nm).
(§3) A plot of percentage of inhibition vs inhibitor concentration is obtained, and IC50 is determined using a linear regression calculation (concentration of inhibitor which will give 50% inhibition).
Target sequence in this assay (P07154 114-334): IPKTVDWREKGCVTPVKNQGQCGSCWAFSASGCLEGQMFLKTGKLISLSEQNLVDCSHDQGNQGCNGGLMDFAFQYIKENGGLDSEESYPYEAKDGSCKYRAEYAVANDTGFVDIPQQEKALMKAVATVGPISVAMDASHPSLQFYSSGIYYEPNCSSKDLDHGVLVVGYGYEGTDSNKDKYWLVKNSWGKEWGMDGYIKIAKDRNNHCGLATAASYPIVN

cathepsin B [4] = molecular target: T2, cathepsin B; experiment: In vitro assay procedure for cathepsin B (recombinant rat cathepsin B, N-CBZ-Phe-Arg-AMC substrate); format: biochemical; details: pH 5.1, 10 min incubation at room temperature
Description: In vitro assay procedure for cathepsin B
The compounds of formula I are tested for inhibition of cathepsin B using the known method (A. J. Barret et al., Biochem. J. 1982, 201, 189-198). To 170 μl of an enzyme-buffer mixture (enzyme: recombinant rat cathepsin B, diluted to give approximate 10 Fluorescence units/min, buffer: 56 mM sodium acetate, 1.124 mM EDTA, 10 mM DTT, pH 5.1) 10 μL of inhibitor (dissolved in DMSO) is added. After 10 min of incubation at room temperature, a 20 μl of 5 mM substrate (N-CBZ-Phe-Arg-AMC, dissolved in DMSO) is added to initiate reaction. Reading is followed up for 10 min on a Fluoroskan fluorescence reader (excitation at 380 nm, emission at 460 nm).
as §3
Target sequence in this assay (P00787 80-339): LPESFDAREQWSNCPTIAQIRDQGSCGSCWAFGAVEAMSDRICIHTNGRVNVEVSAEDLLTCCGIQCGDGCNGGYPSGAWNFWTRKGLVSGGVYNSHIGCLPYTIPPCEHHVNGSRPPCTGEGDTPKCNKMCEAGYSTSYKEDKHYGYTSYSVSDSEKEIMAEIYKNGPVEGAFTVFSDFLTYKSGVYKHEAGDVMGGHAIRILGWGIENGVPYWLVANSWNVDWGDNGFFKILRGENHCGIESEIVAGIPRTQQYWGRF

cathepsin B [5] = experiment: In vivo inhibition test for cathepsin B, mouse liver ML fraction; details: 50 mg/kg intraperitoneal, 6 hours, mean for 3 animals
Description: as §1, §2

cathepsin L [6] = experiment: In vivo inhibition test for cathepsin L, mouse liver ML fraction; details: 50 mg/kg intraperitoneal, 6 hours, mean for 3 animals
Description: as §1, §2

| IC50 (cathepsin L [3]) | IC50 (cathepsin B [4]) | SMILES | further results |
| --- | --- | --- | --- |
| 400 nM | 1000 nM | O=C(C=Cc1ccncc1)N[C@@H](CC1CCCCC1)C(=O)N[C@@H]1C(=O)N[C@H]1Oc1ccccc1 [Example 10, (3S,4S)-3-{2S-2-[3-(pyridin-4-yl)propenoyl]amino-2-cyclohexylmethyl-acetamido}-4-phenoxy-azetidin-2-one] |  |
| 430 nM | 2200 nM | O=C(C=Cc1cccnc1)N[C@@H](CC1CCCCC1)C(=O)N[C@@H]1C(=O)N[C@H]1Oc1ccccc1 [Example 11, (3S,4S)-3-{2S-2-[3-(pyridin-3-yl)propenoyl]amino-2-cyclohexylmethyl-acetamido}-4-phenoxy-azetidin-2-one] |  |
| 3 nM | 250 nM | Cc1cccc(O[C@H]2NC(=O)[C@H]2NC(=O)[C@H](CC2CCCCC2)NC(=O)OCc2ccccc2)c1 [Example 9B, (3S,4R)-3-(2S-2-benzyloxycarbonylamino-2-cyclohexylmethyl-acetamido)-4-(3-methyl-phenoxy)-azetidin-2-one] |  |

More lines, now with the values behind:

| SMILES | IC50 (cathepsin L [3]) | IC50 (cathepsin B [4]) | further results |
| --- | --- | --- | --- |
| N[C@@H](Cc1ccc(O[C@@H]2NC(=O)[C@H]2NC(=O)[C@H](Cc2ccccc2)NC(=O)CCc2ccccc2)cc1)C(=O)O [Ref. Compd.] |  |  | Inhibition Cathepsin L (cathepsin L [1]; 30 mg/kg intraperitoneal): 30%; Inhibition Cathepsin L (cathepsin L [1]; 70 mg/kg intraperitoneal): 55%; Inhibition Cathepsin B (cathepsin B [2]; 30 mg/kg intraperitoneal): 37%; Inhibition Cathepsin B (cathepsin B [2]; 70 mg/kg intraperitoneal): 56% |
| N[C@@H](Cc1ccc(O[C@@H]2NC(=O)[C@H]2NC(=O)[C@H](CC2CCCCC2)NC(=O)CCc2ccccc2)cc1)C(=O)O [Example 3, (3S,4S)-3-{2S-2-(3-phenylpropionoyl)amino-2-cyclohexylmethyl-acetamido}-4-{4-(2S-2-amino-2-carboxy-ethyl)-phenoxy}-azetidin-2-one] | 1820 nM | 34000 nM | Inhibition Cathepsin B (cathepsin B [5]): 65%; Inhibition Cathepsin L (cathepsin L [6]): 55% |
| Cc1cccc(O[C@@H]2NC(=O)[C@H]2NC(=O)[C@H](CC2CCCCC2)NC(=O)OCc2ccccc2)c1 [Example 9A, (3S,4S)-3-(2S-2-benzyloxycarbonylamino-2-cyclohexylmethyl-acetamido)-4-(3-methyl-phenoxy)-azetidin-2-one] | 83 nM | 6900 nM |  |
| CC(=O)O[C@@H]1NC(=O)[C@H]1NC(=O)[C@H](CC1CCCCC1)NC(=O)NCc1ccccc1 [Example 7, (3S,4S)-3-{2S-2-(benzylaminocarbonyl)amino-2-cyclohexylmethyl-acetamido}-4-acetoxy-azetidin-2-one] | 2300 nM | 11600 nM |  |
| O=C(CCc1ccccc1)N[C@@H](CC1CCCCC1)C(=O)N[C@H]1C(=O)NC1S(=O)(=O)c1ccccc1 (stereo partly drawn) [Example 6, (3S,4SR)-3-{2S-2-(3-phenylpropionoyl)amino-2-cyclohexylmethyl-acetamido}-4-phenylsulfonyl-azetidin-2-one] | 78 nM | 29000 nM |  |
| O=C(CCc1ccccc1)N[C@@H](CC1CCCCC1)C(=O)N[C@H]1C(=O)NC1Sc1ccccc1 (stereo partly drawn) [Example 5, (3S,4SR)-3-{2S-2-(3-phenylpropionoyl)amino-2-cyclohexylmethyl-acetamido}-4-phenylthio-azetidin-2-one] | 16 nM | 10400 nM |  |
| CC(=O)O[C@@H]1NC(=O)[C@H]1NC(=O)[C@H](CC1CCCCC1)NS(=O)(=O)/C=C/c1ccccc1 [Example 8, (3S,4S)-3-{2S-2-(phenylethenylsulfonyl)amino-2-cyclohexylmethyl-acetamido}-4-acetoxy-azetidin-2-one] | 2160 nM | 11000 nM |  |
| N[C@@H](Cc1ccc(O[C@H]2NC(=O)[C@H]2NC(=O)[C@H](CC2CCCCC2)NC(=O)CCc2ccccc2)cc1)C(=O)O [Example 4, (3S,4R)-3-{2S-2-(3-phenylpropionoyl)amino-2-cyclohexylmethyl-acetamido}-4-{4-(2S-2-amino-2-carboxy-ethyl)-phenoxy}-azetidin-2-one] | 1800 nM | 9200 nM |  |
| CC(=O)O[C@@H]1NC(=O)[C@H]1NC(=O)[C@H](CC1CCCCC1)NC(=O)CCc1ccccc1 [Example 2, (3S,4S)-3-{2S-2-(3-phenylpropionoyl)amino-2-cyclohexylmethyl-acetamido}-4-acetoxy-azetidin-2-one] | 2320 nM | 11600 nM |  |
| CC(=O)O[C@@H]1NC(=O)[C@H]1NC(=O)[C@H](CC1CCCCC1)NC(=O)OCc1ccccc1 [Example 1, (3S,4S)-3-(2S-2-benzyloxycarbonylamino-2-cyclohexylmethyl-acetamido)-4-acetoxy-azetidin-2-one] | 780 nM | 8710 nM |  |
